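Tested at 5 concentrations; 48 h exposure; 96-well plates; endpoints linearly interpolated, else capped at highest concentration. At the TGI there is no net growth.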
Columns and labels:
Test in all cases: growth of human tumour cells (NCI), 48 h
[1] = tested on: EKVX NSCLC
[2] = tested on: IGROV1 ovarian
[3] = tested on: MCF7 breast
[4] = tested on: NCI-H460 lung
[5] = tested on: NCI/ADR-RES ovarian
[6] = tested on: OVCAR-4 ovarian
[7] = tested on: PC-3 prostate
[8] = tested on: SNB-19 CNS
[9] = tested on: SNB-75 CNS
[10] = tested on: SW-620 colon
[11] = tested on: T-47D breast
[12] = tested on: TK-10 renal
[13] = tested on: UACC-62 melanoma
[14] = tested on: LOX IMVI melanoma
[15] = tested on: SF-539 CNS

Structure (SMILES): CCC(=O)N1C(=O)C(CC)(CC)C(=O)N1C(=O)CC
- TGI [1]: > 100 µM
- TGI [2]: > 100 µM
- TGI [3]: > 100 µM
- TGI [4]: > 100 µM
- TGI [5]: > 100 µM
- TGI [6]: > 100 µM
- TGI [7]: > 100 µM
- TGI [8]: > 100 µM
- TGI [9]: > 100 µM
- TGI [10]: > 100 µM
- TGI [11]: > 100 µM
- TGI [12]: > 100 µM
- TGI [13]: > 100 µM

Structure (SMILES): COc1cc(O)cc(O)c1C(=O)CC(Cl)(Cl)Cl
- TGI [1]: > 100 µM
- TGI [2]: > 100 µM
- TGI [14]: > 100 µM
- TGI [3]: > 100 µM
- TGI [4]: > 100 µM
- TGI [5]: > 100 µM
- TGI [6]: > 100 µM
- TGI [7]: > 100 µM
- TGI [15]: > 100 µM
- TGI [8]: > 100 µM
- TGI [10]: > 100 µM
- TGI [11]: > 100 µM
- TGI [12]: > 100 µM
- TGI [13]: > 100 µM

Structure (SMILES): O=S(c1ccc(Cl)cc1)c1ccccc1C1=NCCN1 (stereo unspecified)
- TGI [1]: > 100 µM
- TGI [2]: > 100 µM
- TGI [3]: > 100 µM
- TGI [4]: > 100 µM
- TGI [5]: > 100 µM
- TGI [6]: > 100 µM
- TGI [7]: > 100 µM
- TGI [8]: > 100 µM
- TGI [9]: > 100 µM
- TGI [10]: > 100 µM
- TGI [11]: > 100 µM
- TGI [12]: > 100 µM
- TGI [13]: > 100 µM

Structure (SMILES): CCn1c(=O)c2c3ccc(OC)cc3[nH]c2c2ccc(OC)cc21
- TGI [1]: > 100 µM
- TGI [2]: > 100 µM
- TGI [3]: > 100 µM
- TGI [5]: > 100 µM
- TGI [6]: > 100 µM
- TGI [7]: > 100 µM
- TGI [15]: > 100 µM
- TGI [8]: > 100 µM
- TGI [9]: 96.1 µM
- TGI [10]: > 100 µM
- TGI [11]: > 100 µM
- TGI [12]: > 100 µM
- TGI [13]: > 100 µM

Structure (SMILES): O=C1CCCCN1C(=O)c1ccc([N+](=O)[O-])cc1
- TGI [1]: > 100 µM
- TGI [2]: > 100 µM
- TGI [14]: > 100 µM
- TGI [3]: > 100 µM
- TGI [4]: > 100 µM
- TGI [5]: > 100 µM
- TGI [6]: > 100 µM
- TGI [7]: > 100 µM
- TGI [15]: > 100 µM
- TGI [8]: > 100 µM
- TGI [9]: > 100 µM
- TGI [10]: > 100 µM
- TGI [11]: > 100 µM
- TGI [12]: > 100 µM
- TGI [13]: > 100 µM

Structure (SMILES): COc1cc(S(=O)(=O)Nc2ccc(-c3csc(N4C(=O)C(C)SC4c4ccccc4)n3)cc2)ccc1Cl (stereo unspecified)
- TGI [1]: > 100 µM
- TGI [2]: > 100 µM
- TGI [14]: > 100 µM
- TGI [3]: 43.2 µM
- TGI [5]: > 100 µM
- TGI [6]: > 100 µM
- TGI [7]: > 100 µM
- TGI [15]: > 100 µM
- TGI [8]: > 100 µM
- TGI [9]: 32.7 µM
- TGI [10]: > 100 µM
- TGI [11]: 54.2 µM
- TGI [13]: 52.8 µM

Structure (SMILES): O=C(c1ccccc1)c1c(C(F)(F)F)n([O-])c2cc(F)c(F)cc2[n+]1=O
- TGI [1]: 5 µM
- TGI [2]: 6.79 µM
- TGI [3]: 1.71 µM
- TGI [4]: 8.53 µM
- TGI [5]: 1.63 µM
- TGI [6]: > 100 µM
- TGI [7]: 2.44 µM
- TGI [15]: 1.67 µM
- TGI [8]: 10.8 µM
- TGI [10]: > 100 µM
- TGI [11]: > 36.7 µM
- TGI [12]: 0.816 µM
- TGI [13]: 5.08 µM

Structure (SMILES): NCCS(=O)(=O)O
- TGI [1]: > 100 µM
- TGI [2]: > 100 µM
- TGI [14]: > 100 µM
- TGI [3]: > 100 µM
- TGI [4]: > 100 µM
- TGI [5]: > 100 µM
- TGI [7]: > 100 µM
- TGI [15]: > 100 µM
- TGI [8]: > 100 µM
- TGI [9]: > 100 µM
- TGI [10]: > 100 µM
- TGI [11]: > 100 µM
- TGI [12]: > 100 µM

Structure (SMILES): CC(=O)O[C@H]1C[C@](C)(O)[C@@]23CC([C@@H](OC(=O)C(C)(C)O)[C@@H](OC(C)=O)C2(COC(=O)c2ccccc2)[C@H]1OC(C)=O)C(C)(C)O3 (stereo partly specified)
- TGI [1]: > 100 µM
- TGI [2]: > 100 µM
- TGI [14]: > 100 µM
- TGI [3]: > 100 µM
- TGI [4]: > 100 µM
- TGI [5]: > 100 µM
- TGI [6]: > 100 µM
- TGI [7]: > 100 µM
- TGI [15]: > 100 µM
- TGI [8]: > 100 µM
- TGI [10]: > 100 µM
- TGI [11]: > 100 µM
- TGI [12]: > 100 µM
- TGI [13]: > 100 µM

Structure (SMILES): COc1cccc([C@@H]2CC(=O)c3cc4c(cc3N2)OCO4)c1
- TGI [1]: > 100 µM
- TGI [14]: > 100 µM
- TGI [3]: > 100 µM
- TGI [5]: > 100 µM
- TGI [6]: > 100 µM
- TGI [7]: > 100 µM
- TGI [15]: > 100 µM
- TGI [8]: > 100 µM
- TGI [9]: > 100 µM
- TGI [10]: > 100 µM
- TGI [11]: > 100 µM
- TGI [12]: > 100 µM
- TGI [13]: > 100 µM

Structure (SMILES): Cn1c(COC(=O)NC2CCCCC2)c(COC(=O)NC2CCCCC2)c2ccc3cc(C=O)ccc3c21
- TGI [1]: > 100 µM
- TGI [2]: > 100 µM
- TGI [14]: > 100 µM
- TGI [3]: > 100 µM
- TGI [5]: > 100 µM
- TGI [7]: > 100 µM
- TGI [15]: > 100 µM
- TGI [8]: > 100 µM
- TGI [9]: 60.8 µM
- TGI [10]: > 100 µM
- TGI [11]: > 100 µM
- TGI [12]: > 100 µM
- TGI [13]: > 100 µM

Structure (SMILES): COc1cc([C@@H]2c3cc4c(cc3[C@@H](c3c(O)cc(O)c5c3O[C@H](c3ccc(O)c(O)c3)[C@H](OC(=O)c3cc(O)c(O)c(O)c3)C5)[C@H]3COC(=O)[C@H]23)OCO4)cc(OC)c1O
- TGI [1]: > 100 µM
- TGI [2]: > 100 µM
- TGI [14]: > 100 µM
- TGI [3]: > 100 µM
- TGI [4]: > 100 µM
- TGI [5]: > 100 µM
- TGI [6]: > 100 µM
- TGI [7]: > 100 µM
- TGI [15]: 60.1 µM
- TGI [8]: > 100 µM
- TGI [10]: > 100 µM
- TGI [11]: > 100 µM
- TGI [12]: > 100 µM
- TGI [13]: > 100 µM

Structure (SMILES): CCN(CC)c1ccc2cc(C(N)=O)c(=Nc3ccc(F)cc3)oc2c1
- TGI [1]: > 100 µM
- TGI [2]: > 100 µM
- TGI [14]: > 100 µM
- TGI [3]: > 100 µM
- TGI [4]: > 100 µM
- TGI [5]: > 100 µM
- TGI [6]: > 100 µM
- TGI [7]: > 100 µM
- TGI [8]: > 100 µM
- TGI [9]: 47 µM
- TGI [10]: > 100 µM
- TGI [11]: > 100 µM
- TGI [12]: 44.7 µM
- TGI [13]: > 100 µM

Structure (SMILES): Cc1ccc2c(=O)cc(Cc3csc4ccccc34)[nH]c2n1
- TGI [1]: > 100 µM
- TGI [2]: 30.9 µM
- TGI [14]: 40.6 µM
- TGI [3]: > 100 µM
- TGI [5]: 52.4 µM
- TGI [6]: 91.4 µM
- TGI [7]: > 100 µM
- TGI [8]: > 100 µM
- TGI [9]: 79.6 µM
- TGI [10]: > 100 µM
- TGI [11]: 73.2 µM
- TGI [12]: > 100 µM
- TGI [13]: > 100 µM

Structure (SMILES): O=C(N[C@H]1CCC[C@H]1C(=O)Nc1ccc(C(F)(F)F)cc1)OCc1ccccc1
- TGI [1]: > 100 µM
- TGI [2]: > 100 µM
- TGI [14]: > 100 µM
- TGI [3]: > 100 µM
- TGI [4]: > 100 µM
- TGI [5]: > 100 µM
- TGI [6]: > 100 µM
- TGI [7]: > 100 µM
- TGI [15]: > 100 µM
- TGI [8]: > 100 µM
- TGI [10]: > 100 µM
- TGI [11]: > 100 µM
- TGI [12]: > 100 µM
- TGI [13]: > 100 µM

Structure (SMILES): C[N+]1([O-])[C@H]2CC(OC(=O)[C@H](CO)c3ccccc3)C[C@H]1[C@H]1O[C@H]12 (stereo partly specified)
- TGI [1]: > 100 µM
- TGI [2]: > 100 µM
- TGI [14]: > 100 µM
- TGI [3]: > 100 µM
- TGI [5]: > 100 µM
- TGI [6]: > 100 µM
- TGI [7]: > 100 µM
- TGI [15]: > 100 µM
- TGI [8]: > 100 µM
- TGI [9]: > 100 µM
- TGI [10]: > 100 µM
- TGI [11]: > 100 µM
- TGI [12]: > 100 µM
- TGI [13]: > 100 µM
